Results taken from US6572751B1, “Method and apparatus for continuous flow isoelectric focusing for purifying biological substances” (priority 1997, dated 2003).

How the values were obtained:
[1] = Lysozyme activity of fractions; type: biochemical
Experimental: For this Exarnple, egg white was collected from 2,000 eggs (about 50 L) and diluted in ice-cold distilled water, up to 150 L. All manipulations were done at 4° C. The solution was filtered and introduced into a 4 L apparatus according to the present invention, and having three working outflow ports (plus two electrode outflows). The contifocuser was initially filled with distilled water. The flow rate was adjusted at 75 ml/min, a DC 1,000 Volts was established, and the initial power of the system was 1.5 W. After adding the crude egg white suspension, the power raised to 10.5 W. The contifocusing lasted 34 hrs. […] This suspension was gradually introduced into a 1 L contifocuser with three working and two electrode outflow ports. The flow rate with distilled water was adjusted at 10 ml/min, 1,000 V/DC. […] The contifocusing lasted 3 days. The outflow nearest to the cathode, at pH 10.5, was collected. […] This fraction of 12 L was thereafter introduced in four fractions onto 200×1500 mm chromatographic columns packed by a molecular sieving gel, Spheron P-200, and 25 ml fractions were collected.

[2] = tested on: E. coli and two Streptococcus Spp.; conditions: disk tests

Row | Molecule | protein-splitting activity ([1]; first peak after Spheron P-200 gel chromatography) | lysozyme concentration (activity) ([1]; outflow at pH 10.5 after first contifocusing run) | inhibition [2]
1 | lysozyme: enzyme isolated from egg white by contifocusing | 20,000 U/g | 200 U/ml | 
2 | CN(C)[C@@H]1C(=O)C(C(N)=O)=C(O)[C@@]2(O)C(=O)C3=C(O)c4c(O)cccc4[C@@](C)(O)[C@H]3C[C@@H]12 [original material, Tetracyclin] |  |  | 85%
